From BindingDB's records for doi:10.1111/j.1527-3458.2004.tb00024.x (Karolinska Institutet, 2004)

Target: T1, D1 dopamine receptor (Macaca fascicularis, UniProt Q5I6B7)
T1 sequence (Q5I6B7 whole entry): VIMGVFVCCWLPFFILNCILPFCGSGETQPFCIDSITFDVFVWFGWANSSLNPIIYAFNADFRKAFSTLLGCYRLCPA

Oc1cc2c(cc1O)C1c3ccccc3CNC1CC2 (stereo unspecified) [Dihydrexidine, DHX]
Ki: 20.2 nM
